Measurements: a melting point compilation (Tetko et al.; mined from patent text by program, amines drawn as free bases though some values may be those of a salt)

Row | melting point [°C] | Structure (SMILES)
1 | 140 to 145 | CCOC(=O)C1=C(C(F)(F)F)Nc2n[nH]cc2C1c1ccsc1 (configuration not stated)
2 | 141 to 142 | COC(=O)C=Cc1cnc(SC)nc1NCc1ccc(OC)c(Cl)c1
3 | 100 to 101 | Nc1ccc(Br)cc1CC(F)(F)F
4 | 151 to 153 | OCc1ccccc1NCc1c(O)ccc2c1CCCO2
5 | 109 to 111 | COc1ccc(NC(C)=O)cc1OCCCN1CCC(c2nsc3cc(F)ccc23)CC1
6 | 139 to 140 | CC(C)(C)OC(=O)N1Cc2c(Br)sc(-c3ccccc3)c2C1
7 | 160 | On1nc(Br)c(Cl)c1Br
8 | 202 to 204 | NC(=O)c1ccc2nccn2c1
9 | 56 to 58 | CN(C)S(=O)(=O)c1cc2c(c(Cl)c1Cl)OC(C(=O)OCC(=O)OC(c1ccccc1)c1ccccc1)C2 (configuration not stated)
10 | 108 | CC(=O)c1ccc(Cl)c(S(=O)(=O)N(C)C)c1
11 | 176 to 178 | CC(C)CN1C(=O)COc2cc(F)c(N)cc21
12 | 125 to 126 | COC(=O)N(C)C1CN(C(=O)Nc2ccc(OC(F)(F)F)cc2)N=C1c1ccc(OC(F)F)cc1 (configuration not stated)
13 | 137 to 139 | Cc1oc(-c2ccc(C(F)(F)F)cc2)nc1CCOc1c(Cl)cc(CN(O)C(N)=O)cc1Cl
14 | 132 to 133 | C1CCc2c(c3c(N4CCCC4)nc(N4CCCC4)nc3n2CCN2CCOCC2)C1
15 | 123 to 125 | Clc1ccc(/C=C/C2=CCN(Cc3ccccc3)CC2)cc1
16 | 156 to 157 | COc1ccc(F)cc1C(=O)NC1Cc2cc(S(=O)(=O)NC(=S)NC(C)C)c(OC)cc2OC1(C)C (configuration not stated)
17 | 215 to 222 | COc1cc2c(cc1OC)S(=O)(=O)N(C)C(C(N)=O)C2 (configuration not stated)
18 | 67 to 70 | CN(C)CCN1C(=O)C(C)(C)SC1c1cccnc1 (configuration not stated)
19 | 239 to 240 | O=C(O)c1cc(NS(=O)(=O)c2ccc([N+](=O)[O-])cc2)ccc1O
20 | 71 to 73 | C#CCSc1nnc(-c2cccs2)s1
21 | 130 | Cc1ccc(-c2[nH]nc(CO)c2-c2ccc(S(N)(=O)=O)cc2)cc1
22 | 150 to 151 | CC(C)CCn1cc(C2CCN(CCOc3ccccc3C(=O)O)CC2)c2ccccc21
23 | 112 to 113 | CSc1ccc([N+](=O)[O-])c(C#N)c1
24 | 201 to 202 | CNC(=O)CNC(=O)c1cncc(F)c1
25 | 102 to 104 | O=C(C=Cc1ccccc1)OCC#CC#CCOC(=O)C=Cc1ccccc1

Row | melting point [°C] | Structure (SMILES)
26 | 84 | CCCOc1cccc2c1OCN(CCc1ccccc1)C2
27 | 165 to 166 | COc1cc(S(C)=O)c(C)cc1O (configuration not stated)
28 | 74 to 75 | COc1ccc2cc(C(=O)[C@H](C)OS(=O)(=O)c3ccccc3)ccc2c1
29 | 173 to 178 | COc1ccc(C2=NN(Cn3nnc4ccccc43)C(=O)[C@H]3CCCC[C@@H]23)cc1OC (relative stereo)
30 | 150 to 155 | CS(=O)(=O)c1ccc(-n2nc(CNC(=O)NC34CC5CC(CC(C5)C3)C4)cc2-c2ccccc2)cc1
31 | 123 to 126 | O=Cc1scc2c1-c1cccc3cccc-2c13
32 | 100 to 103 | CN(C)C(=O)c1cccnc1C(=O)c1cccc(C(F)(F)F)c1
33 | 194 | Cc1c(-c2ccc(NC(=O)OC(C)(C)C)cc2)nc2n1CCc1ccccc1C2OC1CCN(C)CC1 (configuration not stated)
34 | 286 to 288 | CCn1cc(C(=O)O)c(=O)c2cc(F)c(-c3ccncc3)nc21
35 | 189 to 190 | O=C(O)c1cc([N+](=O)[O-])c(Cl)c(S(=O)(=O)Cl)c1
36 | 205 | COc1cc(Cl)ccc1CN1C(=O)C(C)(c2cc(C(=O)N3CCCCC3)ccc2Cl)c2cc(Cl)ccc21 (configuration not stated)
37 | 115 to 116 | COc1cc(C#CC(=O)O)cc(OC)c1OCc1ccccc1
38 | 67 to 69 | CC1CCc2ccc(OCC3CO3)cc2O1 (configuration not stated)
39 | 106 | OC(=S)Cc1cccc2ccccc12
40 | 157 to 160 | CC(=O)Nc1cc(Br)ccc1S(C)(=O)=O
41 | 280 to 282 | CCOC(=O)C(=O)Nc1nc2ncn(C)c(=S)n2n1
42 | 93 to 94 | CC(C)(C)OC(=O)N1CCN(c2ccc(OCc3ccccc3)cn2)CC1
43 | 56 to 69 | c1ccc(C[C@@H]2CN(C3=Nc4ccccc4Sc4ccccc43)CCN2)cc1
44 | 90 to 93 | CN(C)C=Nc1ccc(-n2ncnc2-c2ccc(F)cc2)cc1
45 | 138 to 140 | CNC(=O)c1cn(CCO)nc1[N+](=O)[O-]
46 | 232 to 233 | Cc1nc(-c2c(F)cccc2Cl)n[nH]1
47 | 122 to 124 | Cc1nn(C(C)C(=O)N(C)C)c(C)c1-c1ccccc1 (configuration not stated)
48 | 56 to 58 | Cc1cccnc1C(=O)NC(C)(C)C
49 | 100 to 101 | CCC(O)(c1ccc(Cl)cc1)c1ccc(OCc2cccc(C)n2)cc1 (configuration not stated)
50 | 118 | COC(=O)C(CC(C)C)NCC(=O)n1c(=O)cc(-c2ccccc2)c2cc(C(c3ccc(Cl)cc3)n3ccnc3)ccc21 (configuration not stated)

Row | melting point [°C] | Structure (SMILES)
51 | 147 to 149 | COCCNC(=O)c1nc(NC(C)=O)c2cc(Cc3ccc(F)cc3)cnc2c1OCc1ccccc1
52 | 126 | CC(C)C(CN1CCC(Nc2nc3ccccc3n2-c2cccc3c2NCCC3)CC1)NCc1ccccc1 (configuration not stated)
53 | 75 to 82 | O=C(C1CC1)N1CCC(C2CCc3ccc(O)cc32)CC1 (configuration not stated)
54 | 242 to 244 | Cc1cc(S(=O)(=O)O)ccc1OCc1ccccc1C(=O)O
55 | 234 to 236 | Cc1nn2c(-c3cc(Cl)ccc3Cl)ccnc2c1C#N
56 | 155 to 157 | CCOC(=O)C1=C(C)Nc2ncnn2C1C (configuration not stated)
57 | 65 to 67 | CC(C)c1cc(-c2ccc(F)cc2)c(OCc2ccccc2)c(C(C)C)c1
58 | 124 to 126 | COc1ccc(-c2cc(=O)n(C)c(OC(C)C)n2)cc1OC
59 | 167 | COC(C)=CC(=O)Nc1cccc(NC(C)=O)c1
60 | 257 to 258 | CCCc1nnc2c(=O)n(C)c3ccc(C(F)(F)F)cc3n12
61 | 172 to 174 | Cn1c(COc2ccc(CC3SC(=O)NC3=O)cc2)nc2ccc(Oc3ccc(NC(=O)c4ccc(F)cc4F)cc3)cc21 (configuration not stated)
62 | 258 to 260 | Nc1nc2c(sc(=O)n2CCCCO)c(=O)[nH]1
63 | 198 to 199 | CCOC(=O)c1nc2c(=O)[nH]c3cc(C(F)(F)F)ccc3n2c1P(=O)(OCC)OCC
64 | 194 to 195 | CCCCn1cc2c(n1)c(N)nc1ccccc12
65 | 252 to 254 | CCOC(=O)c1cn2c3c(c(Cl)c(F)cc3c1=O)C(=O)CC2C (single isomer, unassigned; (-))
66 | 160 to 163 | COc1cc2c(cc1[N+](=O)[O-])C(=O)C1(CC1)O2
67 | 62.5 to 64.1 | CCCCCCn1c2ccccc2c2ccccc21
68 | 172 to 173 | O=C(CCl)Nc1ccc(NNC(=O)c2ccccc2CO)cc1
69 | 33 to 36 | CC(CCBr)Oc1ccccc1 (configuration not stated)
70 | > 350 | CCCc1nn(C)c2c(=O)[nH]c(Cc3ccc(S(=O)(=O)O)cc3)nc12
71 | 88 to 89 | CCCn1c(CCO)nc(C(C)C)c1Sc1cc(Cl)cc(Cl)c1
72 | 137 to 141 | Cc1cc(CO)c2cccc(OCc3ccccc3)c2n1
73 | 130 to 131 | Cc1c(-c2ccc(F)cc2)nnn1CCC#Cc1ccccn1
74 | 122 to 123 | CCc1cccc(C(=O)c2nc(OC)cc(OC)n2)c1N
75 | 78 | CCCN(CCCc1csc2ccc(F)cc12)C1COc2cccc(OC)c2C1 (configuration not stated)

Row | melting point [°C] | Structure (SMILES)
76 | 130 | CCCCNC(=O)Oc1cccc(NC(=O)CC(C)(OCC)OCC)c1
77 | > 200 | N=C(N)c1ccc(-c2ccc(N3CCCN(CC(=O)O)C3=O)cc2)cc1
78 | 126 | COc1ccc(C2=NN(Cc3ccc([N+](=O)[O-])cc3)C(=O)CC2)cc1OC
79 | 149 to 150 | Cc1c(N)cc2c(c1C)OC(C)(C)C2=O
80 | 266 | Cn1c(=O)c(C#N)c(N2CCN(C(=O)c3cccs3)CC2)c2cccnc21
81 | > 300 | Cn1c(=O)c2cnc(N)nc2n(C)c1=O
82 | 214 | Cc1cc(-c2ccc(OC3SCC(O)C(O)C3O)cn2)ccn1 (configuration not stated)
83 | 112 to 115 | COc1ccc(-c2ccc(-c3ccc(C(=O)O)cc3)cc2-c2ccc3c(c2)C(C)(C)CCC3(C)C)cc1
84 | 125 | CC#CCOc1ccc(SC(CCCCCC)C(=O)O)cc1 (configuration not stated)
85 | 106 to 107 | Oc1cc2c(cc1OCCCOc1ccccc1)OCC2
86 | 142 to 144 | C[C@H]1CC[C@H]2C(C)(C)[C@@H](O)[C@@H](OS(=O)(=O)c3ccccc3)C[C@]23Oc2c(c(O)cc4c2CNC4=O)C[C@]13C
87 | 273 to 278 | CCOC(=O)c1ncc2[nH]c3ccc(NC(C)=O)cc3c2c1C
88 | 220 to 222 | COc1cc(/C=C/C(=O)Nc2ccccc2C(=O)O)ccc1OCc1cn(CC(=O)Nc2ccccc2)nn1
89 | 138 to 140 | O=C(Nc1ccc(F)c(C(F)(F)F)c1)c1csc2cc(Oc3cc(CO)ncn3)ccc12
90 | 78 to 82 | COC(=O)CCCc1cc2cc(C(F)(F)F)ccc2n1S(=O)(=O)c1ccc2nc(C)oc2c1
91 | 104 to 106 | CCc1ccc(S(=O)(=O)Nc2ccc(Cl)cc2[N+](=O)[O-])cc1
92 | 175 | Nc1ccc2ccc(-c3ccc(F)cc3)nc2n1
93 | 37 to 38 | O=C1N(CCCOCc2ccccc2)c2ccccc2C12COc1cc3c(cc12)OCCO3 (configuration not stated)
94 | 169 to 170 | CC(C)n1nc(-c2sc(C(=O)N3CCCC3)nc2-c2ccccc2)ccc1=O
95 | 101 to 104 | CC(C)(C)OC(=O)n1cc(C=C(Br)Br)c2ccccc21
96 | 119 to 121 | COc1cc(CF)nc(N)n1
97 | 72 to 73 | CCC(O)(c1ccc(F)cc1)c1ccc(OCCN2CCCCC2)cc1 (configuration not stated)
98 | 138 to 140 | Cc1ccc(S(=O)(=O)n2ccc3c(-c4c(C)nc5ccc(Cl)nn45)ccnc32)cc1

Row | Structure (SMILES) | melting point [°C]
99 | CN(C)[C@@H]1Cc2cccc(O)c2C[C@H]1O (relative stereo) | 168 to 170
100 | O=C1C=C(NC(=O)C(=O)c2cn(Cc3cccc(Cl)c3F)c3ccccc23)CO1 | 248 to 250
101 | COCc1noc(-c2ncn3c2CN(C)C(=O)c2cc(F)ccc2-3)n1 | 192 to 194
102 | CCCCCCCCOc1ccc(C(=O)OC(C)c2cc3c(s2)-n2c(C)nnc2CN=C3c2ccccc2Cl)cc1 (configuration not stated) | 56 to 61
